Tests used:
panelists = assay: Cooling intensity: panelists taste aqueous solutions versus menthol at 2 ppm; type: in vivo; conditions: aqueous solution with cooling intensity similar or slightly higher than a solution of menthol at 2 ppm
panelist [1] = assay: Application in chewing gum, gum stick chewed by a panelist; type: in vivo; conditions: chewing gum with 0.10 g compound in about 100 g gum, with peppermint oil; chewed for 15 minutes
Experimental: All the ingredients are mixed in the pre-warmed gum base. The mixture is spread in thick films, cooled down and cut in sticks. A gum stick is chewed by a panelist for 15 minutes. […] No off-note was observed.

panelist [2] = assay: Application in beverage (clear lemon/lime soda), tasted by a panelist; type: in vivo; conditions: 1.2 mL of a 0.5% ethanolic solution in a 355 mL can of clear lemon/lime soda
Experimental: 1.2 mL of a 0.5% ethanolic solution of 1-isopropyl-4-methyl-bicyclo[2.2.2]oct-5-ene-2,3-dicarbinol is added in a 355 mL (12 fl oz.) can of clear lemon/lime soda.

panelist [3] = conditions: general statement, not tested here; cited from earlier work

1-Isopropyl-4-methyl-bicyclo[2.2.2]oct-5-ene-2-carboxylic acid and 1-isopropyl-4-methyl-bicyclo[2.2.2]oct-5-ene-3-carboxylic acid [Example 2]
Concentration (panelists): 2 ppm

CC(C)C12C=CC(C)(CC1)C(CO)C2CO (stereo not drawn) [Example 1, 1-Isopropyl-4-methyl-bicyclo[2.2.2]oct-5-ene-2,3-dicarbinol]
Concentration (panelists): 2 ppm | cooling sensation (panelist [1]): immediate cooling sensation is felt in all areas of the mouth | cooling sensation (panelist [2]): immediate cooling sensation in the mouth | throat burning (panelist [2]): none of the throat burning

CC1=CC2C(O)CC1CC2C(C)C (stereo not drawn) [Example 6, 7-isopropyl-5-methyl-bicyclo[2.2.2]oct-5-en-2-ol]
Concentration (panelists): 5 ppm

CCNC(=O)C1CC2(C)C=CC1(C(C)C)CC2 (stereo not drawn) [Example 4, N-ethyl 1-Isopropyl-4-methyl-bicyclo[2.2.2]oct-5-ene-2-carboxamide]
Concentration (panelists): 3 ppm

CCNC(=O)C1CC(C)CCC1C(C)C (stereo not drawn) [WS-3, N-ethyl p-menthanecarboxamide, reference compound]
Concentration (panelists): 1.5 ppm | throat burning (stated as known characteristic) (panelist [3]): throat burning that is characteristic
